Measurements from publication PMC4844587, “PET imaging of cyclooxygenase-2 (COX-2) in a pre-clinical colorectal cancer model” (EJNMMI Research, 2016).

Assays:
[1] = Radiometabolite analysis and blood compartment distribution; assay type: in vivo, NIH-III nude mice
Method: Blood samples from the tail vein (20–40 μL) were collected at 5, 30, 60, and 120 min p.i. Plasma was separated by centrifugation (5 min, 13,000×g) followed by plasma protein precipitation using ice-cold methanol (two parts per one part plasma) and centrifugation (5 min, 13,000×g). Supernatants were analyzed by radio thin-layer chromatography (radio-TLC). TLCs were developed in 1 % MeOH/CH2Cl2 and analyzed using a BAS-5000 reader.

HCA-7 tumors [2] = experiment: Dynamic PET imaging of HCA-7 tumor-bearing mice
Method: Female NIH-III nude mice were housed under standard conditions with free access to standard food and tap water. HCA-7 and HCT-116 cells (5 × 10^6 cells in 100 μL of PBS) were injected into the upper left flank of female NIH-III nude mice (20–24 g). After 14 to 21 days post-inoculation, HCA-7 and HCT-116 tumors reached sizes of approximately 0.6–0.9 cm^3 (0.78 ± 0.15 g, as determined during biodistribution experiments) which were suitable for all in vivo experiments.
General anesthesia of HCA-7 tumor-bearing mice was induced with inhalation of isoflurane in 40 % oxygen/60 % nitrogen (gas flow = 1 mL/min), and mice were subsequently fixed in prone position. The body temperature was kept constant at 37 °C for the entire experiment. […] PET data was collected dynamically over 60 min for up to 4 h using an Inveon® PET/CT scanner (Siemens Preclinical Solutions, Knoxville, TN, USA). For the initial 4-h dynamic PET experiments, 3.5 % HSA was added to the final injection solution, while all other experiments were done without addition of carrier protein HSA. Mean standardized uptake values [SUVmean = (activity/mL tissue)/(injected activity/body weight), mL/g] were calculated for each region of interest (ROI) with a threshold defined at 50 % of radioactivity uptake. The time-activity curves (TACs) were generated from dynamic PET scans. All semi-quantified PET data are presented as means ± SEM.
A transmission scan for attenuation correction was not acquired. The radioactivity of the injection solution in a 0.5 mL syringe was determined with a dose calibrator (Atomlab^TM 300, Biodex Medical Systems, New York, U.S.A.). After the PET emission scan was started the radioactivity was injected with a delay of approximately 15 s. Data acquisition continued for 60 min in 3D list mode. The dynamic list mode data were sorted into sinograms with up to 54 time frames (10x2, 8x5, 6x10, 6x20, 8x60, 10x120, 6x300 s). The frames were reconstructed using maximum a posteriori (MAP) reconstruction modes. The pixel size was 0.085x0.085x0.12 cm, and the resolution in the center field of view was 1.8 mm. Correction for partial volume effects was not performed. The image files were further processed using the ROVER v2.0.51 software (ABX GmbH, Radeberg, Germany). Masks defining 3D regions of interest (ROI) were set and the ROIs were defined by thresholding.
ROIs covered all visible tumor mass of the subcutaneous tumors, and the thresholds were defined by 50% of the maximum radioactivity uptake level for HCA-7 tumor in each animal.

HCT-116 tumors = experiment: PET imaging of HCT-116 tumor-bearing mice; assay type: in vivo, NIH-III nude mice; conditions: 2 h p.i., n = 3
Method: Positron emission tomography (PET) and biodistribution experiments were carried out in HCA-7 and HCT-116 tumor-bearing NIH-III nude mice (Charles River Laboratories, Quebec, Canada). Female NIH-III nude mice were housed under standard conditions with free access to standard food and tap water. HCA-7 and HCT-116 cells (5 × 10^6 cells in 100 μL of PBS) were injected into the upper left flank of female NIH-III nude mice (20–24 g). After 14 to 21 days post-inoculation, HCA-7 and HCT-116 tumors reached sizes of approximately 0.6–0.9 cm^3 (0.78 ± 0.15 g, as determined during biodistribution experiments) which were suitable for all in vivo experiments.
General anesthesia of HCA-7 tumor-bearing mice was induced with inhalation of isoflurane in 40 % oxygen/60 % nitrogen (gas flow = 1 mL/min), and mice were subsequently fixed in prone position. The body temperature was kept constant at 37 °C for the entire experiment. […] PET data was collected dynamically over 60 min for up to 4 h using an Inveon® PET/CT scanner (Siemens Preclinical Solutions, Knoxville, TN, USA). […] Mean standardized uptake values [SUVmean = (activity/mL tissue)/(injected activity/body weight), mL/g] were calculated for each region of interest (ROI) with a threshold defined at 50 % of radioactivity uptake. […] All semi-quantified PET data are presented as means ± SEM.

Lipophilicity = assay type: physicochemical
HCA-7 tumors [3] = experiment: Biodistribution in HCA-7 tumor-bearing mice; conditions: 60 min p.i.; for Biodistribution: Tumor/blood / Biodistribution: Tumor/muscle: ratio, n = 4; for Blocking of [^18F]Pyricoxib tumor uptake (biodistribution studies): celecoxib 100 mg/kg (2 mg per mouse) i.p., HCA-7 tumor
Method: Animals were sacrificed at 60 min p.i. The organs and tissues of interest were rapidly excised, weighed, and the radioactivity was determined using the automatic gamma counter (see above). Radioactivity in the selected tissues and organs was calculated as percent injected dose per gram tissue (%ID/g). Data were analyzed as means ± standard deviation (mean ± SD) for n = 4 animals.

COX-2 = conditions: read-out: COX-2 inhibition IC50; cited from earlier work
[4] = system: carbonic anhydrase (CA) enzyme family; conditions: cited from earlier work
[5] = + 2 mg celecoxib i.p. 60 min prior

Method for HCA-7 cells: Blocking experiments were performed at 60 min. Radiotracer uptake was stopped by the addition of 1 mL of ice-cold PBS. Then, cells were washed two times with PBS and lysed in 0.4 mL of radioimmunoprecipitation assay buffer (RIPA buffer). Radioactivity of cell lysates was determined with a WIZARD2 Automatic gamma counter (Perkin Elmer; Waltham, MA, USA). Total protein concentration in the samples was determined by the bicinchoninic acid method (BCA; Pierce, Thermo Scientific 23227) using bovine serum albumin (800, 600, 400, 300, 200, 100, 50 μg/mL, blank) as protein standard. Cell uptake data are expressed as percent of measured radioactivity per 1 mg protein (%radioactivity/mg protein).

Structure (SMILES): CS(=O)(=O)c1ccc(-c2cc(C(F)(F)F)nc(NCc3ccc([18F])cc3)n2)cc1 [[^18F]Pyricoxib, N-(4-[^18F]fluorobenzyl)-4-[4-(methylsulfonyl)phenyl]-6-(trifluoro-methyl)pyrimidin-2-amine]
- Blood compartment distribution: blood cells ([1]; 5 min): 68%
- Blood compartment distribution: plasma proteins ([1]; 5 min): 2%
- Blood compartment distribution: plasma supernatant ([1]; 5 min): 30%
- Detectable radioactivity in plasma fraction ([1]; 5 min p.i.): 30%
- Blood compartment distribution: blood cells ([1]; 30 min): 54%
- Blood compartment distribution: plasma proteins ([1]; 30 min): 4%
- Blood compartment distribution: plasma supernatant ([1]; 30 min): 42%
- Blood compartment distribution: blood cells ([1]; 60 min): 43%
- Blood compartment distribution: plasma proteins ([1]; 60 min): 7%
- Blood compartment distribution: plasma supernatant ([1]; 60 min): 50%
- Detectable radioactivity in plasma fraction ([1]; 2 h p.i.): 50%
- Percentage of intact [^18F]Pyricoxib ([1]; blood, 5 min p.i., mice): 98%
- Mean SUV HCA-7 tumor (HCA-7 tumors [2]; 60 min p.i., control animals, no HSA, n = 6): 0.75 ± 0.12
- SUV HCA-7 tumor (HCA-7 tumors [2]; 60 min p.i., pre-treated with celecoxib 2 mg i.p. 60 min prior, n = 6): 0.57 ± 0.20
- SUV2h tumor (HCA-7 tumors [2]; HCA-7 tumor, 2 h p.i., n = 3): 1.09 ± 0.13
- SUV4h tumor (HCA-7 tumors [2]; HCA-7 tumor, 4 h p.i., […] HSA added, n = 7): 1.19 ± 0.13
- SUV muscle (HCA-7 tumors [2]; muscle as reference tissue, 60 min p.i., no HSA, n = 6): 0.50 ± 0.11
- SUV60min muscle (HCA-7 tumors [2]; muscle, 60 min p.i., […] HSA added): 0.61 ± 0.14
- SUV4h muscle (HCA-7 tumors [2]; muscle, 4 h p.i., […] HSA added, n = 7): 0.53 ± 0.11
- SUV2h tumor (HCT-116 tumors): 0.93 ± 0.06
- logP (Lipophilicity): 3.37
- Biodistribution: Blood (HCA-7 tumors [3]; control, n = 4, mean ± SD): 0.65 ± 0.12 %ID/g
- Biodistribution: Bone (HCA-7 tumors [3]; control, n = 4, mean ± SD): 0.67 ± 0.19 %ID/g
- Biodistribution: Brain (HCA-7 tumors [3]; control, n = 4, mean ± SD): 1.74 ± 0.51 %ID/g
- Biodistribution: Duodenum (HCA-7 tumors [3]; control, n = 4, mean ± SD): 4.59 ± 0.73 %ID/g
- Biodistribution: Fat (HCA-7 tumors [3]; control, n = 4, mean ± SD): 12.67 ± 5.45 %ID/g
- Biodistribution: HCA-7 tumor (HCA-7 tumors [3]; control, n = 4, mean ± SD): 2.12 ± 0.53 %ID/g
- Biodistribution: Heart (HCA-7 tumors [3]; control, n = 4, mean ± SD): 2.52 ± 0.54 %ID/g
- Biodistribution: Intestine (large) (HCA-7 tumors [3]; control, n = 4, mean ± SD): 4.21 ± 1.74 %ID/g
- Biodistribution: Intestine (small) (HCA-7 tumors [3]; control, n = 4, mean ± SD): 8.08 ± 2.33 %ID/g
- Biodistribution: Kidneys (HCA-7 tumors [3]; control, n = 4, mean ± SD): 4.38 ± 1.01 %ID/g
- Biodistribution: Liver (HCA-7 tumors [3]; control, n = 4, mean ± SD): 17.13 ± 1.22 %ID/g
- Biodistribution: Lung (HCA-7 tumors [3]; control, n = 4, mean ± SD): 3.75 ± 0.66 %ID/g
- Biodistribution: Muscle (HCA-7 tumors [3]; control, n = 4, mean ± SD): 1.42 ± 0.54 %ID/g
- Biodistribution: Ovaries (HCA-7 tumors [3]; control, n = 4, mean ± SD): 8.22 ± 1.27 %ID/g
- Biodistribution: Pancreas (HCA-7 tumors [3]; control, n = 4, mean ± SD): 3.92 ± 1.39 %ID/g
- Biodistribution: Spleen (HCA-7 tumors [3]; control, n = 4, mean ± SD): 1.24 ± 0.33 %ID/g
- Biodistribution: Stomach (HCA-7 tumors [3]; control, n = 4, mean ± SD): 1.08 ± 0.29 %ID/g
- Biodistribution: Tumor/blood (HCA-7 tumors [3]; [5]): 1.09 ± 0.41
- Biodistribution: Tumor/muscle (HCA-7 tumors [3]; [5]): 0.70 ± 0.19
- Biodistribution: Tumor/blood (HCA-7 tumors [3]; control): 3.39 ± 0.55
- Biodistribution: Tumor/muscle (HCA-7 tumors [3]; control): 1.81 ± 1.04

Structure (SMILES): CS(=O)(=O)c1ccc(C2=C(c3ccccc3)C(=O)OC2)cc1 [rofecoxib, 4-(4′-methylsulfonylphenyl)-3-phenyl-2-(5H)-furanone]
- Blocking of [^18F]Pyricoxib uptake (HCA-7 cells): blocked uptake of [^18F]Pyricoxib in HCA-7 cells in a concentration-dependent manner
- IC50 (COX-2): 18 to 26 nM

Structure (SMILES): Cc1ccc(-c2cc(C(F)(F)F)nn2-c2ccc(S(N)(=O)=O)cc2)cc1 [celecoxib, reference compound]
- Affinity for carbonic anhydrase [4]: low nanomolar affinity
- Blocking of [^18F]Pyricoxib tumor uptake (biodistribution studies) (HCA-7 tumors [3]): 50%
- Blocking of [^18F]Pyricoxib tumor uptake (biodistribution studies) (HCA-7 tumors [3]; listed as Celecoxib): 51%
